Measurements published in patent publication EP0683161A1, “Ester of 4-amino-5-chloro-2-methoxybenzoic acid, process for their preparation and pharmaceutical compositions containing them” (MIDY S.p.A., priority 1994, dated 1995).

Legend:
récepteur 5-HT₄ [1] = target: T1, récepteur 5-HT₄ (Cavia porcellus, UniProt O70528); test: 5-HT response of the electrically stimulated guinea pig ileum myenteric plexus (modified Craig and Clarke test); design: species or system cobayes; conditions: 30 min incubation, cumulative 5-HT curve 10⁻¹⁰ to 10⁻⁵M
T1 construct: On isole le plexus myentérique à partir de segments d'iléon de 3 cm environ; from tissue; host or cells: guinea pig ileum myenteric plexus (isolated organ bath)
Description: Dans le but d'évaluer l'activité vis-à-vis du récepteur 5-HT₄, on a soumis les composés de l'invention à l'essai décrit par D.A. Craig et D.E. Clarke. (J. Pharmacol. Exp. Ther., 1990, 252: 1378-86) en lui apportant quelques modifications.
Des cobayes albinos mâles - Charles River Italia - (poids moyen de 500 g) sont sacrifiés par décapitation. On isole le plexus myentérique à partir de segments d'iléon de 3 cm environ, prélevés à 10 cm de la jonction iléooeecale; on place le plexus dans un bain de 20 ml pour organes isolés, contenant une solution de Krebs et de l'acide ascorbique à raison de 1 mg/ml. On maintient la solution, aérée au carboxygène, à la température de 37°C. Le plexus, relié à un transducteur isotonique et soumis à une charge de 0,5 g, est stimulé électriquement de façon supramaximale (fréquence 0,2 Hz, durée […]) par une électrode coaxiale au platine. La préparation est traitée avec de la phénoxybenzamine 10⁻⁷M pendant 30 minutes et, ensuite, lavée plusieurs fois. On réduit le voltage jusqu'à obtenir un effet stimulant de 50% par rapport au maximum et le plexus est ensuite stimulé par la sérotonine à raison de 3·10⁻⁷M. Après lavage et stabilisation, la préparation est prête pour l'essai des composés à activité 5-HT₄. Trois courbes cumulatives de 5-HT sont construites toutes les 60 minutes. […]

récepteur 5-HT₃ = target: T2, récepteur 5-HT₃ (Rattus norvegicus, UniProt P35563); test: in vitro binding to 5-HT3 sites of rat cerebral cortex, displacement of [3H] BRL 43694 (granisetron); conditions: rat cerebral cortex membranes, labelled ligand 0,5 nM
T2 construct: les sites de liaison 5-HT₃ présents dans le cortex cérébral du rat; from tissue; host or cells: rat cerebral cortex membranes
T2 sequence (P35563 24-483): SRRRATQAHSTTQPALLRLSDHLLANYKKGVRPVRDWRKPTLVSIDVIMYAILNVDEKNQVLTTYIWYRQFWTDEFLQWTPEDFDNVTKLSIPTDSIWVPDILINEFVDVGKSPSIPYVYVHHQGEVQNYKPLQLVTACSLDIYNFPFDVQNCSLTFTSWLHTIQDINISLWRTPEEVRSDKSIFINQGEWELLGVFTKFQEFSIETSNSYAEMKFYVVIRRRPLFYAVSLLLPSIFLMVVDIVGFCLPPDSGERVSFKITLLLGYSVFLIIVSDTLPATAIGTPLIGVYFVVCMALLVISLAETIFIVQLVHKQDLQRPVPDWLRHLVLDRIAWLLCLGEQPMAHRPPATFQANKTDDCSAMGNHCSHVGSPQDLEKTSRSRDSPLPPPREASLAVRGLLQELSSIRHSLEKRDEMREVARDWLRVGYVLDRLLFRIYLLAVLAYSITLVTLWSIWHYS
Method: Afin de tester l'affinité du composé de formule (I) relativement au récepteur 5-HT₃, on a effectué des essais de liaison in vitro en utilisant les sites de liaison 5-HT₃ présents dans le cortex cérébral du rat (G.J. Kilpatrick, B.J. Jones et M.B. Tyers, Nature, 1987; 330: 746-8) et comme ligand marqué le [³H] BRL 43694 (granisetron), un antagoniste des récepteurs 5-HT₃ puissant et spécifique, à la concentration de 0,5 nM.
La préparation des membranes et le test de liaison ont été effectués selon la méthode décrite par Nelson et Thomas (D.R. Nelson et D.R. Thomas, Biochem. Pharmacol., 1989; 38: 1693-5).
Les résultats ont été évalués avec des méthodes d'ajustement ("fitting") non linéaire "Accufit saturation", pour les études de saturation (H.A. Feldman, Analyt. Biochem., 1972; 48: 317-38) et "Accufit competition", pour les études de déplacement (H.A. Feldman, D. Rodbard et D. Levine, Analyt. Biochem., 1972; 45: 530-56).

récepteurs 5-HT₄ = récepteurs 5-HT₄ (Rattus norvegicus, UniProt Q62758); test: 5-HT relaxation of carbachol-contracted rat oesophagus tunica muscularis mucosae (Baxter and Clarke method); conditions: rat oesophagus tunica muscularis mucosae contracted by carbachol; result in words only
Description: De plus, toujours pour l'évaluation de l'activité 5-HT₄, on a soumis le composé de formule (I) à un essai sur la tunica muscolaris mucosae de l'oesophage de rat contracté par du carbacol. […] Des rats mâles Crl:CD(SD)BR (Charles River Italia) d'un poids moyen de 250 g sont sacrifiés par dislocation cervicale. Un segment d'oesophage d'environ 2 cm est prélevé au niveau intratoraxique à proximité du diaphragme. La tunica muscolaris mucosae est ensuite isolée et suspendue dans un bain pour organes isolés de 20 ml contenant une solution de Krebs en présence d'hydrocortisone (3·10⁻⁷ M) à 37°C aérée avec 95% O₂ et 5% CO₂. Le tissu est relié à un transducteur isotonique et soumis à une charge de 1 g. La préparation est incubée avec de la pargiline (10⁻⁴ M) pendant 30 minutes et lavée plusieurs fois. Après 60 minutes environ, on contracte le tissu avec des doses cumulatives de carbacol (10⁻⁶, 2·10⁻⁶, 3·10⁻⁶, 4·10⁻⁶ M); de cette manière, on obtient un tonus du tissu stable dans le temps. La 5-HT (10⁻¹⁰ et 10⁻⁶ M), qui est ajoutée cumulativement, relaxe l'oesophage grâce à l'activation des récepteurs 5-HT₄. Trois courbes de carbacol sont construites par préparation toutes les 90 minutes. Après chaque courbe, on procède au moins à 4 lavages. Aussi bien la contraction provoquée par le carbacol que les effets sur celle-ci sont identiques et peuvent être reproduits. […]

récepteur 5-HT₄ [2] = target: récepteur 5-HT₄ (Homo sapiens, UniProt Q13639); test: activity of the separated cis and trans isomers at the 5-HT4 receptor (test not specified); conditions: cis and trans isomers evaluated separately
Sequence of récepteur 5-HT₄ (Homo sapiens, UniProt Q13639) (Q13639 whole entry): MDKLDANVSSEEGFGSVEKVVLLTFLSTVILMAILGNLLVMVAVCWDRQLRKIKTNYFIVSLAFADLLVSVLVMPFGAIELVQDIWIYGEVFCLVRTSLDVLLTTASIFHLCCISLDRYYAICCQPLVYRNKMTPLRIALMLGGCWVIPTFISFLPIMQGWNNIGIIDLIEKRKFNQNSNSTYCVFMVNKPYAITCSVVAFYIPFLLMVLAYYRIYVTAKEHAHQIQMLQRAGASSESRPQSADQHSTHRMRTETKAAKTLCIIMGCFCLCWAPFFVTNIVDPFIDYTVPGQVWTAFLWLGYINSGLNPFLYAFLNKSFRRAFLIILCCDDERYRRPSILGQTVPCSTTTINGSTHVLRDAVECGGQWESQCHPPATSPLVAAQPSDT

Sequence of récepteurs 5-HT₄ (Q62758 whole entry): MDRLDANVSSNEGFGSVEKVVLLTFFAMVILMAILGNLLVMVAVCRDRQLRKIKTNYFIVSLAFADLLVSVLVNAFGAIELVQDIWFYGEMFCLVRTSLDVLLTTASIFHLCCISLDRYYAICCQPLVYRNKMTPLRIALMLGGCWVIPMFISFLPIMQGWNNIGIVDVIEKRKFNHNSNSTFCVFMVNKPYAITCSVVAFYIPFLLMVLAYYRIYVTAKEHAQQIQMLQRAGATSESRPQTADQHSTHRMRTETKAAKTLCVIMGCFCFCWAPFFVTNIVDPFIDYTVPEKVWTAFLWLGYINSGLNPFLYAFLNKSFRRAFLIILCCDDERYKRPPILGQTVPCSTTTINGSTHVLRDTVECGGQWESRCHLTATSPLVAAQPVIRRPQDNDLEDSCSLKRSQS
T1 sequence (O70528 whole entry): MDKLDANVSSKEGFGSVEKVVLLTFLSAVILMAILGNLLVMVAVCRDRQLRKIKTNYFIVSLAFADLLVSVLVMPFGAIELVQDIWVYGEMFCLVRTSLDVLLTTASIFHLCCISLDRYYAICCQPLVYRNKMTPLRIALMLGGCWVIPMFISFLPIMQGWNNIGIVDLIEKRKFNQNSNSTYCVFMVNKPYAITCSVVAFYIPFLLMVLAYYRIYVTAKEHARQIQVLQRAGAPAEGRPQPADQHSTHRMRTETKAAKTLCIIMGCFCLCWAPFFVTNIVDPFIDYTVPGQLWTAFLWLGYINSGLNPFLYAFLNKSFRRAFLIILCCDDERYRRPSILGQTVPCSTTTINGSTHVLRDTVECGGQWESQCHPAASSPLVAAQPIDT

For `COc1cc(N)c(Cl)cc1C(=O)OCCN1CC(C)CC(C)C1` (stereo not shown) [composé de formule (I), ester 3,5-diméthylpipéridinoéthyliquede l'acide 4-amino-5-chloro-2-méthoxybenzoïque], the “IC₅₀, dose qui réduit de 50% la réponse de la 5-HT” value (récepteur 5-HT₄ [1]) was “quelques nanomoles”, the “déplacement du [³H] BRL 43694” value (récepteur 5-HT₃) was “inactif” and the “pA₂ (antagonism of 5-HT relaxation)” value (récepteurs 5-HT₄) was “très efficace”.

For `COc1cc(N)c(Cl)cc1C(=O)OCCN1CC(C)CC(C)C1` (stereo not drawn) [isomère cis, isomère cis de l'ester 3,5-diméthylpipéridinoéthyliquede l'acide 4-amino-5-chloro-2-méthoxybenzoïque], the “activité vis-à-vis du récepteur 5-HT₄” value (récepteur 5-HT₄ [2]) was “le plus actif”.
